Assays:
[1] = system: Sigma, Non-selective; assay: NovaScreen assay; type: binding
[2] = target: T1, GABA A, BDZ, alpha 1, Central (Homo sapiens, UniProt P14867+P18507); assay: NovaScreen assay; type: binding; settings: read-out: Inhibition, 10 μM XL-647
T1 construct: NovaScreen

[3] = target: T2, Thyrotropin Releasing Hormone, TRH (Homo sapiens, UniProt P34981); assay: NovaScreen assay; type: binding; settings: read-out: Inhibition, 10 μM XL-647
T2 construct: NovaScreen

[4] = target: T3, Endothelin, ET-B (Human) (Homo sapiens, UniProt P24530); assay: NovaScreen assay; type: binding; settings: read-out: Inhibition, 10 μM XL-647
T3 construct: NovaScreen

[5] = target: T4, Vasopressin 1 (Homo sapiens, UniProt P37288); assay: NovaScreen assay; type: binding; settings: read-out: Inhibition, 10 μM XL-647
T4 construct: NovaScreen

[6] = target: T5, Choline Acetyltransferase (Homo sapiens, UniProt P28329); assay: NovaScreen assay; type: biochemical; settings: read-out: Inhibition, 10 μM XL-647
T5 construct: NovaScreen

[7] = system: A431 human epidermoid carcinoma xenograft; assay: A431 xenograft model, tumor growth; type: in vivo, mouse; settings: for ED50: Mus musculus
Procedure: Female severe combined immunodeficient mice and female athymic nude mice (NCr), 5 to 8 weeks of age and weighing ˜20 to 25 g, were purchased from The Jackson Laboratory and Taconic, respectively. The animals were housed at the Exelixis vivarium facilities according to guidelines outlined by the Exelixis Institutional Animal Care and Use Committee. During all studies, animals were provided food and water ad libitum and housed in a room conditioned at 70° F. to 75° F. and 60% relative humidity.
Before treatment, H1975, A431, or MDA-MB-231 cells were harvested from exponentially growing cultures, detached by brief trypsinization, washed twice in cold HBSS, resuspended in ice-cold HBSS, and implanted either s.c. (H1975, 3×10^6 cells per mouse) or i.d. (A431, 1×10^6 cells per mouse) into the dorsal hind flank or s.c. into the mammary fat pad (MDA-MB-231, 1×10^6 cells per mouse). Palpable tumors were measured by caliper twice weekly until the mean tumor weight was in the range of ˜80 to 120 mg. Tumor weight was determined by measuring perpendicular diameters with a caliper and multiplying the measurements of diameters in two dimensions: tumor […]. Tumor weight (mg) was extrapolated from tumor volume (mm3) by assuming a conversion factor of 1. On the appropriate day after implantation, mice were grouped (10 mice per group) such that the group mean tumor weight was ˜100±15 mg. The mean tumor weight of each animal in the respective control and treatment groups was determined twice weekly during the dosing periods. Tumor xenografts were established in female mice and allowed to reach approximately 100 mg prior to treatment. An example is described in Gendreau S B, Ventura R, Keast P, et al., Inhibition of the T790M Gatekeeper Mutant of the Epidermal Growth Factor Receptor by EXEL-7647, Clin Cancer Res 3713, 13(12) (2007), which is hereby incorporated by reference.
(§1) The response of tumors to treatment was determined by comparing the mean tumor weight of the treatment group with the appropriate control group. Percentage inhibition of tumor growth was determined with the following formula: Percentage inhibition=100×[1−(Xf−Xo)/(Yf−Yo)], where Xf and Yf are the mean tumor weights of the treatment and control groups, respectively, on day f, and Xo and Yo are the mean tumor weights of treatment and control groups respectively, on day zero (staged tumor weights after grouping)

[8] = system: Calu-6 human tumor xenograft; assay: Calu-6 xenograft, tumor growth; type: in vivo; settings: Mus musculus, qd × 28
Procedure: as §1

[9] = system: H1975 human tumor xenograft; assay: H1975 xenograft, tumor growth; type: in vivo; settings: Mus musculus, NCI-H1975; qd × 14
Procedure: Before treatment, H1975, A431, or MDA-MB-231 cells were harvested from exponentially growing cultures, detached by brief trypsinization, washed twice in cold HBSS, resuspended in ice-cold HBSS, and implanted either s.c. (H1975, 3×10^6 cells per mouse) or i.d. (A431, 1×10^6 cells per mouse) into the dorsal hind flank or s.c. into the mammary fat pad (MDA-MB-231, 1×10^6 cells per mouse). Palpable tumors were measured by caliper twice weekly until the mean tumor weight was in the range of ˜80 to 120 mg. Tumor weight was determined by measuring perpendicular diameters with a caliper and multiplying the measurements of diameters in two dimensions: tumor volume (mm^3)/2=length (mm)×width (mm^2)/2. […] The mean tumor weight of each animal in the respective control and treatment groups was determined twice weekly during the dosing periods. […]
as §1

[10] = target: T6, p-Y-HER2/ErbB2 (Homo sapiens, UniProt P04626); assay: In vivo receptor phosphorylation, BT474 xenografts; design: species or system mouse; settings: Phospho
T6 construct: endogenous in cells; host or cells: BT474 tumour xenografts in mice (per the earlier reading)

[11] = target: T7, total HER2/ErbB2 (Homo sapiens, UniProt P04626); assay: In vivo receptor level, BT474 xenografts; design: species or system mouse
T7 construct: endogenous in cells; host or cells: BT474 tumour xenografts in mice (per the earlier reading)

[12] = target: T8, p-Y-VEGFR2/KDR (Mus musculus, UniProt P35918); assay: In vivo receptor phosphorylation, murine lung; settings: read-out: Estimated IC50 (plasma concentration)
T8 construct: from tissue; host or cells: murine lung

[13] = system: subjects with non-small-cell lung cancer; assay: Clinical Study XL-647-201 (Phase 2, NSCLC front-line); type: in vivo, human; settings: Intermittent 5&9 schedule
Excerpt: Study XL-647-201: Subjects with non-small-cell lung cancer (NSCLC) (n=52) of adenomacarcinoma histology, Stage IIIB, with malignant pleural effusion, or Stage IV previously untreated for metastatic disease were enrolled. Subjects were selected for clinical characteristics predictive of response to EGFR inhibitors (Asian, female, and/or minimal and remote smoking history).

[14] = mouse, in vivo, 100 mg/kg/day
Procedure: Throughout the dosing period, tumor size was measured twice weekly (where applicable), and body weight was measured daily. […] Tumors were excised at the termination of some studies and examined histologically for microvascular density (CD31 staining), proliferating cells (Ki67 staining), and necrosis (hematoxylin/eosin staining).
Tolerability was monitored in these studies by daily measurement of body weight.

[15] = human, in vivo

T6 sequence (P04626 23-1255): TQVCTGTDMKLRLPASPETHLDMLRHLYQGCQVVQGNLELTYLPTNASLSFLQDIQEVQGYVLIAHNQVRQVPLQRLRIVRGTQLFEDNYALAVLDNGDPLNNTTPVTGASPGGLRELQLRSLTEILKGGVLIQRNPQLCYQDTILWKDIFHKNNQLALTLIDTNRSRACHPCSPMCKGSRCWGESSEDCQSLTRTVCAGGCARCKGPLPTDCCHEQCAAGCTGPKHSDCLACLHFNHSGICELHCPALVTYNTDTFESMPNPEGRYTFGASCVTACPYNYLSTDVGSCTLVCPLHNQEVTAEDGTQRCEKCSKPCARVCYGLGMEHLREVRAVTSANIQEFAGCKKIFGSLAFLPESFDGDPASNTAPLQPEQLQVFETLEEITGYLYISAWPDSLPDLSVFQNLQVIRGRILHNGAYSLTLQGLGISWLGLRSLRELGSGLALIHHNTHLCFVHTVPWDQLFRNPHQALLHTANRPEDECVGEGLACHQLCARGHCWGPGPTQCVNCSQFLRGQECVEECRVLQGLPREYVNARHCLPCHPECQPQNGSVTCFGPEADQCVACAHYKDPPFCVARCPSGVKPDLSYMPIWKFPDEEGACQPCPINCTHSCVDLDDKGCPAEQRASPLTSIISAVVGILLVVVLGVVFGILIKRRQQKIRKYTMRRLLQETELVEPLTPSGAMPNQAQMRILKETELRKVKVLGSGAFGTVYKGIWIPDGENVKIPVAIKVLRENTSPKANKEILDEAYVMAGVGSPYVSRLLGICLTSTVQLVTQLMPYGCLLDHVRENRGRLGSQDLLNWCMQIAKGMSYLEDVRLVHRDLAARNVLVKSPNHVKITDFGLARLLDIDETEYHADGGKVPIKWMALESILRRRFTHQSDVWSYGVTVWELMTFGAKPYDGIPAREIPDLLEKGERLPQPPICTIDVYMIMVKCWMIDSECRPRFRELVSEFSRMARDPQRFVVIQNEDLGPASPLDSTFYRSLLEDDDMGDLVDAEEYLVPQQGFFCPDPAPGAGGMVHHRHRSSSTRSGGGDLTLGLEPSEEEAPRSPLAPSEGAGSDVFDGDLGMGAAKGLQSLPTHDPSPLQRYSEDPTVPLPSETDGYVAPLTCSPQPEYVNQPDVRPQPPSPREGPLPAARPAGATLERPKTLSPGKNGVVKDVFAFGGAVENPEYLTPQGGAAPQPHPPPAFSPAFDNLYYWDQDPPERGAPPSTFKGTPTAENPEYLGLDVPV
T8 sequence (P35918 20-1345): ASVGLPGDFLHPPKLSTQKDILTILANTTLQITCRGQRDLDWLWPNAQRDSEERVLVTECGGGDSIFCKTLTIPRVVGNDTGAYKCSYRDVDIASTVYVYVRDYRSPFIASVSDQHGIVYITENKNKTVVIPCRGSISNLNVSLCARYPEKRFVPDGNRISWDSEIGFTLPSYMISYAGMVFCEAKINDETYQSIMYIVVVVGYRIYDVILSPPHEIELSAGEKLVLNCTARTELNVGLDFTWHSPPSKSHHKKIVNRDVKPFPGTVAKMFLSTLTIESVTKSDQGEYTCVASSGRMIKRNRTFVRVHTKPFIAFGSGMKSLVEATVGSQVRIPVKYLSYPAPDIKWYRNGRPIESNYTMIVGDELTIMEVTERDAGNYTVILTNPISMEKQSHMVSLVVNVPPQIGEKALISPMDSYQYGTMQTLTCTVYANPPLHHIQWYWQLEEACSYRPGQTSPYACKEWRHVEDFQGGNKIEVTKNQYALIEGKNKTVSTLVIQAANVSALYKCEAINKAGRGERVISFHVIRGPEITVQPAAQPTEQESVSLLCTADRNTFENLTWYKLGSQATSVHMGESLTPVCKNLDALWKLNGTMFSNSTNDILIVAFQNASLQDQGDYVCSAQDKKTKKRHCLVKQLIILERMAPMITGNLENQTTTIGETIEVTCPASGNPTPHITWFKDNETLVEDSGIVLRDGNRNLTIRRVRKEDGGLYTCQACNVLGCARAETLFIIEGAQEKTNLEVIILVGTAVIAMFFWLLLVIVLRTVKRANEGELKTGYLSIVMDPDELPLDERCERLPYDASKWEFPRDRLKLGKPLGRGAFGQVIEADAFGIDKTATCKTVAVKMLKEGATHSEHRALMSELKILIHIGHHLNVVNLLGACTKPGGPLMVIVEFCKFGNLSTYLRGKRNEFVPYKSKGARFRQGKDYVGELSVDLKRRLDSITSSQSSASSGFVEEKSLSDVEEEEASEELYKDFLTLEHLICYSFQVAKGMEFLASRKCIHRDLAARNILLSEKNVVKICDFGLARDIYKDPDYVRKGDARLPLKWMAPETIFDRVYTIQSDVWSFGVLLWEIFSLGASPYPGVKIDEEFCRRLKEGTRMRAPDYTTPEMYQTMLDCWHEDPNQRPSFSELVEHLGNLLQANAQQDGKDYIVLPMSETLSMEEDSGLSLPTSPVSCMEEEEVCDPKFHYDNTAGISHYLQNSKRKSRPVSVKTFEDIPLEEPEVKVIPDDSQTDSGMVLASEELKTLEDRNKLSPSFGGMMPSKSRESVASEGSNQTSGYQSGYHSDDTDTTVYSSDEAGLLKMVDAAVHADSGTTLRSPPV
T4 sequence (P37288 whole entry): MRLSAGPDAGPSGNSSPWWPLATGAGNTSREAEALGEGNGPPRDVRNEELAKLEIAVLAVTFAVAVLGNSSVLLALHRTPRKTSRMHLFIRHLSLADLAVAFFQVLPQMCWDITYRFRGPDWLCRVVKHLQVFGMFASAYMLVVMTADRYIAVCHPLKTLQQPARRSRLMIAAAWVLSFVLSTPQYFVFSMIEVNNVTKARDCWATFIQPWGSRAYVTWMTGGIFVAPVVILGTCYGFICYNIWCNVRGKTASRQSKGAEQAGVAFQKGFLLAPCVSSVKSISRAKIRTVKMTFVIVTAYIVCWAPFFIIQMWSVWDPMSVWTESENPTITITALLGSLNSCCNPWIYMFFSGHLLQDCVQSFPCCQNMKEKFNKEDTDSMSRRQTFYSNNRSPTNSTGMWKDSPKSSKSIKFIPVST
T2 sequence (P34981 whole entry): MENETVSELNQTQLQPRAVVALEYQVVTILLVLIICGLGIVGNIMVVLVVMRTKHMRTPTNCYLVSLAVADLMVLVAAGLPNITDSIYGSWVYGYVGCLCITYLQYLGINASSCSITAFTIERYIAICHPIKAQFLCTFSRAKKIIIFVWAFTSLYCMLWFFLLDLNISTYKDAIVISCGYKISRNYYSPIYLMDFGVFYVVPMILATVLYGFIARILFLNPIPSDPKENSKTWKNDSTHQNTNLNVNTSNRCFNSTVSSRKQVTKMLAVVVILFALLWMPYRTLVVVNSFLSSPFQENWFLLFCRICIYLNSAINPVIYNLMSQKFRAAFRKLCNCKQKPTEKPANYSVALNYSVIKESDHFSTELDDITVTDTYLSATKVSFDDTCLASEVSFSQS
T5 sequence (P28329 whole entry): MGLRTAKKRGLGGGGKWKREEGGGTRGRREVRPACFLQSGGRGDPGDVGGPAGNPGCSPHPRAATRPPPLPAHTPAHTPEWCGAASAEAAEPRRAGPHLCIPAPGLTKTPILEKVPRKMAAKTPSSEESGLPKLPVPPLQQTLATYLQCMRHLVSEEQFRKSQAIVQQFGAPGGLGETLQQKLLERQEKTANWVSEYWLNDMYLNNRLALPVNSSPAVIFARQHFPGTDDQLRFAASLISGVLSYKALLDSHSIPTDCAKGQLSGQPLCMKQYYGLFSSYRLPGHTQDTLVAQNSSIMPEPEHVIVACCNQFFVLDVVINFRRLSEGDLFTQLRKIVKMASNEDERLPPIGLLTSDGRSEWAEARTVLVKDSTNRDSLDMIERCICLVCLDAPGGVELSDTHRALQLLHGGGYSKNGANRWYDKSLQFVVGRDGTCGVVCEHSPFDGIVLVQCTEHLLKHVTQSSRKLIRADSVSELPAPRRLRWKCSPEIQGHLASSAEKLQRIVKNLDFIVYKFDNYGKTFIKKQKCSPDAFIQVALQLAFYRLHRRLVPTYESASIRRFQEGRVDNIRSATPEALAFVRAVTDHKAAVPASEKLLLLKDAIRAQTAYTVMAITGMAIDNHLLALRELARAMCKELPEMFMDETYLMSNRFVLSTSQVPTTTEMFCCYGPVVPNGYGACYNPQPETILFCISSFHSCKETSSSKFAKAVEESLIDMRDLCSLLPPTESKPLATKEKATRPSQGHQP
T3 sequence (P24530 27-442): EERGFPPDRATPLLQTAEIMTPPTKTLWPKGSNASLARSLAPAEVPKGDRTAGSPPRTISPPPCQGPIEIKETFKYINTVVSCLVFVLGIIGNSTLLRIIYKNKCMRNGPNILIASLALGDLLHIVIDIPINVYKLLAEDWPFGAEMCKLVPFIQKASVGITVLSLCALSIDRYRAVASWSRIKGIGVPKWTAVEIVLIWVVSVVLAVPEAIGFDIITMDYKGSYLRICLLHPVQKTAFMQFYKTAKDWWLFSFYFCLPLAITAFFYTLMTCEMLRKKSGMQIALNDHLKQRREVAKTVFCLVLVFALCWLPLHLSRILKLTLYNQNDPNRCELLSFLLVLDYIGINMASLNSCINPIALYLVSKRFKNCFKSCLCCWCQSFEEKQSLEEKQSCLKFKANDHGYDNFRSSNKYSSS

With `COc1cc2c(Nc3ccc(Cl)c(Cl)c3F)ncnc2cc1OC[C@@H]1C[C@@H]2CN(C)C[C@@H]2C1` [XL-647, N-(3,4-dichloro-2-fluorophenyl)-7-({[(3aR,5r,6aS)-2-methyloctahydrocyclopenta[c]pyrrol-5-yl]methyl}oxy)-6-(methyloxy)quinazolin-4-amine] the “Inhibition, 10 μM XL-647” value [1] was 50.90%, the inhibition at 10 µM [2] was 7.34% and the inhibition at 10 µM [3] was 4.59%. The inhibition at 10 µM [4] was -13.6%, the inhibition at 10 µM [5] was 32.8% and the inhibition at 10 µM [6] was 1.27%. The tumor growth inhibition ([7]; 10 mg/kg/day oral, 14 days) was 65%, the “final tumor weight (marked regression)” value ([7]; 100 mg/kg/day oral, 14 days, starting weight 109±20 mg) was 36 ± 15 mg and the “tumor growth, in words” value ([7]; 10, 30, and 100 mg/kg/day oral, 14 days) was “significantly inhibited tumor growth in a dose dependent manner”. The ED50 ([7]; A-431, qd × 14) was 5.9 mg/kg, the ED50 ([7]; A-431, qd × 28) was 3.8 mg/kg and the ED50 [8] was 16.4 mg/kg. For the same compound, the ED50 [9] was 17 mg/kg, the “Single Dose Duration of Action (100 mg/kg, >50% inhibition)” value [10] was greater than 72 h and the IC50 ([10]; in vivo, read-out: Estimated IC50 (plasma concentration)) was 3600 nM. For the same compound, the “Single Dose Duration of Action (100 mg/kg, >50% inhibition)” value [11] was greater than 96 h, the IC50 [12] was 1200 nM and the “clinical benefit rate (PR+SD)” value ([13]; 38 evaluable) was 71%. The “subjects with PR” value ([13]; of 38 evaluable) was 10 subjects, the “subjects with SD lasting 3 months or more” value ([13]; of 38 evaluable) was 17 subjects and the “tolerability, in words” value [14] was “generally well-tolerated in mice without substantial body weight loss”. For the same compound, the “most common adverse events (frequency ≧10%)” value [15] was “diarrhea, rash, fatigue, nausea, dry skin, cough, dyspnoea, anorexia, electrocardiogram QT prolongation (machine-read), vomiting, constipation, dysgeusia, upper respiratory tract infection, abdominal pain, back pain, pyrexia, dizziness, and dry mouth”.

— patent US9364479B2, “Use of a receptor-type kinase modulator for treating polycystic kidney disease” (SYMPHONY EVOLUTION, INC., priority 2010, dated 2016)
